Assay results taken from ChEMBL document CHEMBL1201862, “PubChem BioAssay data set” (2004).
The source made the active and inactive calls.

Columns and labels:
[1] = target: T1, Alkaline phosphatase, tissue-nonspecific isozyme (Homo sapiens, UniProt P05186)
T1 sequence (P05186 whole entry): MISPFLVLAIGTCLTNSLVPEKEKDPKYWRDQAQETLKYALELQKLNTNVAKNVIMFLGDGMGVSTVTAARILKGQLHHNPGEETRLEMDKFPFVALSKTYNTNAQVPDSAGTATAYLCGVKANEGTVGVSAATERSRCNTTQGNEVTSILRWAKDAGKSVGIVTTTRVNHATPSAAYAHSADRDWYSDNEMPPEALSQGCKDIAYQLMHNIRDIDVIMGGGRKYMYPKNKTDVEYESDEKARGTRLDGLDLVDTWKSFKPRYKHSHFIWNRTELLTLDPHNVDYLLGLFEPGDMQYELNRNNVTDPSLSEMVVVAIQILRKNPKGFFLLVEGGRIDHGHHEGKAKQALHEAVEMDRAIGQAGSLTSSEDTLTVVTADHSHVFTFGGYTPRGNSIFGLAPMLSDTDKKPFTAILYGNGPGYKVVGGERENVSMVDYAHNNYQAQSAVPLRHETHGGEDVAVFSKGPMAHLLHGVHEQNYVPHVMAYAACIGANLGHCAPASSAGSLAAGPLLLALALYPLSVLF

[2] = nonselective inhibitors of cellular cAMP signaling, dose response, counter-screen for MC4R biased antagonist project, cell-based, TR-FRET cAMP detection (AID 602305); format: functional;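 further: U2OS cells stimulated with forskolin near its EC80 as the cAMP inducer; potency is for inhibition of forskolin-stimulated cAMP signaling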
BJ [3] = experiment: cytotoxicity toward BJ-TERT-LT-ST fibroblasts, dose response, cell-based, RAS-independent, luminescence (AID 1935); format: functional; details: Homo sapiens;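 further: BJ fibroblasts immortalized with TERT plus LT and ST oncogenes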
[4] = target: T2, Sphingosine 1-phosphate receptor 4 (Homo sapiens, UniProt O95977); experiment: Fluorescence dose response cell-based high throughput screening assay for antagonists of the Sphingosine 1-Phosphate Receptor 4 (S1P4). [Related pubchem assays: 1524 (Confirmation in triplicates.), 1510 (Primary screen.)]; format: functional
T2 sequence (O95977 whole entry): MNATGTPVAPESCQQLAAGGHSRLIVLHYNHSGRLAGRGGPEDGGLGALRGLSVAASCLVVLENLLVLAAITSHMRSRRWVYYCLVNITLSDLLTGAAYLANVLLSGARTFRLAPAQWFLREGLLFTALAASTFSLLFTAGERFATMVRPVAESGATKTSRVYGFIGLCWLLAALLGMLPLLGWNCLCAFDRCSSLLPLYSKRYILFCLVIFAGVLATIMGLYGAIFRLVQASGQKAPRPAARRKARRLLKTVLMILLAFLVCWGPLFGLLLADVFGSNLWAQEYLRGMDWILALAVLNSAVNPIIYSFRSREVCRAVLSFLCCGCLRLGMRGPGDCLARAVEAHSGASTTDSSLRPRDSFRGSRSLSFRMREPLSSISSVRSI

BJ [5] = experiment: cytotoxicity toward BJ-TERT fibroblasts, dose response, cell-based, RAS-independent, luminescence (AID 1933); format: functional; details: Homo sapiens
BJ [6] = experiment: cells; format: functional, cell-based; details: Homo sapiens
Melanocortin receptor 4 = Melanocortin receptor 4 (Homo sapiens, UniProt P32245); experiment: MC4R antagonist potency on cAMP, dose response, cell-based, TR-FRET, biased antagonists (AID 602298); format: functional;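 further: antagonist potency against agonist-stimulated cAMP production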
[7] = cytotoxicity toward DRD oncogenic fibroblasts, dose response, cell-based, non-viral oncogenic, luminescence (AID 1934); format: functional; details: Homo sapiens
[8] = target: T3, Replicative DNA helicase DnaB (Mycobacterium tuberculosis, UniProt P9WMR3); experiment: DnaB intein splicing inhibitors, dose response, biochemical, cell-free fluorescence (AID 449749); format: functional
T3 sequence (P9WMR3 whole entry): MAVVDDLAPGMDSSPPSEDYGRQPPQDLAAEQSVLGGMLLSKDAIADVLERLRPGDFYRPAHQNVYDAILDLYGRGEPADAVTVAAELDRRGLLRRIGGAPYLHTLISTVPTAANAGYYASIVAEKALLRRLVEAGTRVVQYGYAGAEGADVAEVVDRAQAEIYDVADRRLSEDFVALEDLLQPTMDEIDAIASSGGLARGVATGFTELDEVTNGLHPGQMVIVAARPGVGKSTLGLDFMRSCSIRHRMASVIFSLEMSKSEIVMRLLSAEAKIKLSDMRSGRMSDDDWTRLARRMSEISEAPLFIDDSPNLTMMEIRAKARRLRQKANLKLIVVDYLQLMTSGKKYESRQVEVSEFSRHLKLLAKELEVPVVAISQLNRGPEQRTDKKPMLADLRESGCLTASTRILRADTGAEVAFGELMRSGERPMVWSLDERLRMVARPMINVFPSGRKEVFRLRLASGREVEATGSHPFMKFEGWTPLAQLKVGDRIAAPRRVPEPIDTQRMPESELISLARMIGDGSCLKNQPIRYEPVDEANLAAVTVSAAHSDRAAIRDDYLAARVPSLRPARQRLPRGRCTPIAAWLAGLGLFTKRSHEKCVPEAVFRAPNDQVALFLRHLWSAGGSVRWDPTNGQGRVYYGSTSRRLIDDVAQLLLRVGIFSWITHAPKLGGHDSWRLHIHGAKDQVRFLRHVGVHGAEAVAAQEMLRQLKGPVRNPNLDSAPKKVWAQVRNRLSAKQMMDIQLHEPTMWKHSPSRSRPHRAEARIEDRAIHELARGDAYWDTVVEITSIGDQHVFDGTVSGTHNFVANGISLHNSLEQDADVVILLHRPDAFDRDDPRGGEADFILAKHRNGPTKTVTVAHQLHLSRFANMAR

Protein RecA = target: T4, Protein RecA (Mycobacterium tuberculosis, UniProt P9WHJ3); experiment: Fluorescence Cell-Free Homogeneous Dose Retest to Identify Inhibitors of RecA-Intein Splicing Activity. [Related pubchem assays (depositor defined):AID2097, AID2223, AID489010, AID492950]; format: functional
T4 sequence (P9WHJ3 whole entry): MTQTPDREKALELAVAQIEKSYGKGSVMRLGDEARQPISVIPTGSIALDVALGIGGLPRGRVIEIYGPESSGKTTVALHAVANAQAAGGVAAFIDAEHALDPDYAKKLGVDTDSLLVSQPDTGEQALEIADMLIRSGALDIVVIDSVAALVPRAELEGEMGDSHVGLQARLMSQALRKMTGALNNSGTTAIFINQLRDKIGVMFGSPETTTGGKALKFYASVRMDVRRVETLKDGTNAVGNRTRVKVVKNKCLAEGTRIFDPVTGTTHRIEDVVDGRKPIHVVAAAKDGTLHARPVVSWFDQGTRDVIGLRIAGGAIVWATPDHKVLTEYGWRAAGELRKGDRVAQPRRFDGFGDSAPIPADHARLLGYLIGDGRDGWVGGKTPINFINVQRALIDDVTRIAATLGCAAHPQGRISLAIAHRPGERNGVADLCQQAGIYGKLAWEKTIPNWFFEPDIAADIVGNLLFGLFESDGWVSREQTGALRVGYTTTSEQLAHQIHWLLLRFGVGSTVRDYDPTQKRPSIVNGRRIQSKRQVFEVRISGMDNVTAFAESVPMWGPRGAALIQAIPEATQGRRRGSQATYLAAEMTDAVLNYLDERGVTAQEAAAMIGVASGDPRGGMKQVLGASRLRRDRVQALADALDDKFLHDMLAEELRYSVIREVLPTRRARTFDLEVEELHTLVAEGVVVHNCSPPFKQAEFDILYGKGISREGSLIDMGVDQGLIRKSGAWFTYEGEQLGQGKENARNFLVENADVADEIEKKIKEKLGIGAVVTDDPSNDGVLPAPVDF

[9] = target: Sphingosine 1-phosphate receptor 1 (Homo sapiens, UniProt P21453); format: functional;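 further: Tango beta-arrestin reporter U2OS cells stimulated with S1P near its EC80; inhibitor potency meaning antagonism of receptor activation by the natural agonist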
[10] = microbe, parasite or virus in culture; format: functional; details: Mycobacterium tuberculosis
[11] = target: T5, Neuropeptide Y receptor type 1 (Homo sapiens, UniProt P25929); format: functional;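 on IC50: HEK293 cells with a CNG channel challenged with NPY then isoproterenol; potency as antagonist that reverses NPY suppression of cAMP signal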
T5 sequence (P25929 whole entry): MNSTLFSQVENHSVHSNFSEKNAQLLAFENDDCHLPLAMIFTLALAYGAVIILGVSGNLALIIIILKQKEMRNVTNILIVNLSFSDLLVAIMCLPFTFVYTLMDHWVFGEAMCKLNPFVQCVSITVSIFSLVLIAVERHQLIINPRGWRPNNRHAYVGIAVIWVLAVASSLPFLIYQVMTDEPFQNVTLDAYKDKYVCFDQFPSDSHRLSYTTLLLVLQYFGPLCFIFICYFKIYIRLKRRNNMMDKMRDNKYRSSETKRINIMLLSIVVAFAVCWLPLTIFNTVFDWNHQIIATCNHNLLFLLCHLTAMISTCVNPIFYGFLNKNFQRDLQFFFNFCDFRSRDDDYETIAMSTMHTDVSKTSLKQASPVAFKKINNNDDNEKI

[12] = target: T6, Neuropeptide Y receptor type 2 (Homo sapiens, UniProt P49146); format: functional, cell-based;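 on IC50: HEK293 cells expressing the receptor and a CNG channel; stimulus was NPY near EC95 followed by isoproterenol to raise cAMP; antagonist potency measured as restoring cAMP signal that NPY suppresses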
T6 sequence (P49146 whole entry): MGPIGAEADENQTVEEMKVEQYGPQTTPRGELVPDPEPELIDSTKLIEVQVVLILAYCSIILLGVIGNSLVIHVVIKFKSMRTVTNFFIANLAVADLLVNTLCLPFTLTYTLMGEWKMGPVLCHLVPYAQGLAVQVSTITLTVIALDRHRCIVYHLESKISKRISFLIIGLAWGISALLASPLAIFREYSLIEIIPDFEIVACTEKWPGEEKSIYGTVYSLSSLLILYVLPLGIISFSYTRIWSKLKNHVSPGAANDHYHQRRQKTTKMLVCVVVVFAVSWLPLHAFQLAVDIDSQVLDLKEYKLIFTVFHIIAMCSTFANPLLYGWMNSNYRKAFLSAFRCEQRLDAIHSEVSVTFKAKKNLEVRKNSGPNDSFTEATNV

Bcl-2-like protein 10 = Bcl-2-like protein 10 (Homo sapiens, UniProt Q9HD36); experiment: Biochemical TR3 FP assay of Bcl-B inhibitor potency, EC50 (AID 1243); format: functional
[13] = target: T7, Induced myeloid leukemia cell differentiation protein Mcl-1 (Homo sapiens, UniProt Q07820); experiment: MCL1-BIM BH3 interaction inhibitors, dose response, biochemical, fluorescence polarization, BIM-BH3 peptide, 1536-well (AID 2217)
Bcl-2-like protein 1 = Bcl-2-like protein 1 (Homo sapiens, UniProt Q07817); experiment: BCL-XL inhibitors, dose response, selectivity assay for MCL1 inhibitor project, biochemical, fluorescence polarization, 1536-well (AID 2218)
[14] = target: T7, Induced myeloid leukemia cell differentiation protein Mcl-1; format: functional
[15] = HIV-1 Env-mediated cell fusion inhibitors, dose response, CCR5-tropic Env (AID 2279); format: functional
[16] = A Cell Based Secondary Assay To Explore Cytotoxicity of Compounds that Sensitize Mycobacterium Tuberculosis to Beta-Lactam Antibiotics.; format: functional
[17] = target: T5, Neuropeptide Y receptor type 1; experiment: Fluorescence-based counterscreen for agonists of NPY-Y2: cell-based high-throughput dose response assay for agonists of NPY-Y1.; format: functional
[18] = target: T6, Neuropeptide Y receptor type 2; experiment: Fluorescence-based cell-based high-throughput dose response assay for agonists of NPY-Y2. [Related pubchem assays: 1703 (Screening assay (CNGC inhibitors).), 1359 (Screening assay (NPY-Y2 potentiators or agonists).), 1304 (Screening assay (NPY-Y1 potentiators or agonists).), 1710 (Screening assay (NPY-Y2 agonists).), 1791 (Summary AID.)]; format: functional
HEK293 = experiment: Fluorescence-based counterscreen for potentiators or agonists of NPY-Y2: cell-based high-throughput dose response assay to identify inhibitors of cyclic nucleotide gated ion channel (CNGC) activity. In this assay, the parental HEK293 cell line transfected with a cyclic-nucleotide gated ion channel (CNGC)-based cAMP sensor is used to measure inhibition of isoproterenol-induced CNGC activity by test compound.; format: functional; details: Homo sapiens;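 further: stimulus is 1 µM isoproterenol at EC100 plus PDE inhibitor Ro 20-1724 at 25 µM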
[19] = enhancers of respiration in Yfh1-depleted yeast, dose response, Friedreich's ataxia, plus single-dose screen (AID 1465); format: functional;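 further: yeast depleted of Yfh1p frataxin homolog grown on glycerol needing respiration; WST-1 tetrazolium dye reduction as measure of cellular dehydrogenase metabolic activity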
[20] = target: Glyceraldehyde-3-phosphate dehydrogenase (Homo sapiens, UniProt P04406)
[21] = target: Heat shock 70 kDa protein 1A (Homo sapiens, UniProt P0DMV8); experiment: Hsp70 inhibitors, SAR follow-up, biochemical, fluorescence polarization (AID 1072)
[22] = target: Heat shock cognate 71 kDa protein (Homo sapiens, UniProt P11142); experiment: In Vitro Hsc70 Dose Response Fluorescence Polarization Assay. [Related pubchem assays: 1072 ]
Heat shock cognate 71 kDa protein, sequence (P11142 whole entry): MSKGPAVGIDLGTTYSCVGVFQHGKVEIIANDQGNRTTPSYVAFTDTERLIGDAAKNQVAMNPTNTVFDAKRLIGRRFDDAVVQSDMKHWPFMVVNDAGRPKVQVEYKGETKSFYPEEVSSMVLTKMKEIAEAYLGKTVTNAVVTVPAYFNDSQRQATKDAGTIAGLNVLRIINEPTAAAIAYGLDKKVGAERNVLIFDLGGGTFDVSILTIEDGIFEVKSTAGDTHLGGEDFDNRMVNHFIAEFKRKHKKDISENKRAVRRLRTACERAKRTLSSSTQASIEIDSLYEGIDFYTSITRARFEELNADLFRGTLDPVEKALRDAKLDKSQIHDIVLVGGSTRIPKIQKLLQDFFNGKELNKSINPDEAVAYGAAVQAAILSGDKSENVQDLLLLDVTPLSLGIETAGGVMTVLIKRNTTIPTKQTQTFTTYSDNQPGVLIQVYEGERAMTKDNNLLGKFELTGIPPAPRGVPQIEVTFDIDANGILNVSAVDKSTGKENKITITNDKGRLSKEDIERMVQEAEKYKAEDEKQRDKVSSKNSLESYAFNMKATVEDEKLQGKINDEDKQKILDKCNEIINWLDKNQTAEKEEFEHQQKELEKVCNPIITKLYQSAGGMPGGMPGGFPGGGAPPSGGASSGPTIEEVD

T7 sequence (Q07820 whole entry): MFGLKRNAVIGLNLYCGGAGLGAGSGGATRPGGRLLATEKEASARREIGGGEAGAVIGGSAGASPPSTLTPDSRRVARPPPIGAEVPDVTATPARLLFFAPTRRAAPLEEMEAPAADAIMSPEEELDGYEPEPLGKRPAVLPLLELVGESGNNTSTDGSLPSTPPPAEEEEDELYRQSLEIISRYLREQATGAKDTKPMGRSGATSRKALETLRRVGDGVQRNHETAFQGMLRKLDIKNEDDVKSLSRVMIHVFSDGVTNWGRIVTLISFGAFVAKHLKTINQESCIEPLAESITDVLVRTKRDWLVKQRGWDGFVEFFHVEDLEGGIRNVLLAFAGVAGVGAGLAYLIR
Heat shock 70 kDa protein 1A, sequence (P0DMV8 whole entry): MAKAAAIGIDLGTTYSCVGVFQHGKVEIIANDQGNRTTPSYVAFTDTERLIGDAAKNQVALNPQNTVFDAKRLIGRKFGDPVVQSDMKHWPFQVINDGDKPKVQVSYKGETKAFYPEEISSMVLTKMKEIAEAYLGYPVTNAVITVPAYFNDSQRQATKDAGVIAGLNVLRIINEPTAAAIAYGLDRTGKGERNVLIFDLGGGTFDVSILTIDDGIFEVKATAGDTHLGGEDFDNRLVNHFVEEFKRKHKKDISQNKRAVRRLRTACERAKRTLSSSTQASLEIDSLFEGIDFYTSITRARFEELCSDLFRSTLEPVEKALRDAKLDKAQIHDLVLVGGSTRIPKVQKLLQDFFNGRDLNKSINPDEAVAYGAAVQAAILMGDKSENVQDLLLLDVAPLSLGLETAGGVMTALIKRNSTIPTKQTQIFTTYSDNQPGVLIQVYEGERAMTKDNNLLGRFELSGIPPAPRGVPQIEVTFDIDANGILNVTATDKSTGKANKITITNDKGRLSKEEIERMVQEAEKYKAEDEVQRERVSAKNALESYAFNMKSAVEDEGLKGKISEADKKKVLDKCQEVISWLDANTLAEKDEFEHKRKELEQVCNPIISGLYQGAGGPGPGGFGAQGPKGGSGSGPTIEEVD
Bcl-2-like protein 10, sequence (Q9HD36 whole entry): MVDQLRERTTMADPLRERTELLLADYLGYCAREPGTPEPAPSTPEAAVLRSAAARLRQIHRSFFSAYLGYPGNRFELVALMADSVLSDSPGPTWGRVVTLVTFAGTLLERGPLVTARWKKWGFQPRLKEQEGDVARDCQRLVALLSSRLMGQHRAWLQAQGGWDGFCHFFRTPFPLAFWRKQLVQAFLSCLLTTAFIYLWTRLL
Sphingosine 1-phosphate receptor 1, sequence (P21453 whole entry): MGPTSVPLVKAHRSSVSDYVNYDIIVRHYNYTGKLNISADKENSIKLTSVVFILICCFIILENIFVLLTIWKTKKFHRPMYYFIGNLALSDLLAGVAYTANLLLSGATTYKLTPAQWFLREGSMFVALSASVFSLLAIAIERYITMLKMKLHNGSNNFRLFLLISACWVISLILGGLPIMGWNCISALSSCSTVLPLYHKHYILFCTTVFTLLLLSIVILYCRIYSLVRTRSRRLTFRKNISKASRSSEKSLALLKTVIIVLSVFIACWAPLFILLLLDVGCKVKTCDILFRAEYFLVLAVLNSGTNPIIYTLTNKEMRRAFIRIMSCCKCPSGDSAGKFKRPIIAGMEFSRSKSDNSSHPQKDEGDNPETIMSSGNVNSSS
Melanocortin receptor 4, sequence (P32245 whole entry): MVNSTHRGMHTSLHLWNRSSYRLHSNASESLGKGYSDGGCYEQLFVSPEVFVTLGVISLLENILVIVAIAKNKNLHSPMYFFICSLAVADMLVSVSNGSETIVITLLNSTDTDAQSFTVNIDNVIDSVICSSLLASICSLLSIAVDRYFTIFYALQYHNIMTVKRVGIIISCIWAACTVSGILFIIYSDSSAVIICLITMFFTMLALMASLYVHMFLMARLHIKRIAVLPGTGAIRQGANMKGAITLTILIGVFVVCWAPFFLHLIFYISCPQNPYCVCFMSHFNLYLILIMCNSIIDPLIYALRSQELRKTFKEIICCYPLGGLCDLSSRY
Bcl-2-like protein 1, sequence (Q07817 whole entry): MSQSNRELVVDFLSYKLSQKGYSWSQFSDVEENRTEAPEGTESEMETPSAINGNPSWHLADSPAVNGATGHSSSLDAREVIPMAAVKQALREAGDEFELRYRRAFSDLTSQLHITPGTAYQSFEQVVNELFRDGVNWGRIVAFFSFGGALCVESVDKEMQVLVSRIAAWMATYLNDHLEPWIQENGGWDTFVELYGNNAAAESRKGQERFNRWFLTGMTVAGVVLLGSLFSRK
Glyceraldehyde-3-phosphate dehydrogenase, sequence (P04406 whole entry): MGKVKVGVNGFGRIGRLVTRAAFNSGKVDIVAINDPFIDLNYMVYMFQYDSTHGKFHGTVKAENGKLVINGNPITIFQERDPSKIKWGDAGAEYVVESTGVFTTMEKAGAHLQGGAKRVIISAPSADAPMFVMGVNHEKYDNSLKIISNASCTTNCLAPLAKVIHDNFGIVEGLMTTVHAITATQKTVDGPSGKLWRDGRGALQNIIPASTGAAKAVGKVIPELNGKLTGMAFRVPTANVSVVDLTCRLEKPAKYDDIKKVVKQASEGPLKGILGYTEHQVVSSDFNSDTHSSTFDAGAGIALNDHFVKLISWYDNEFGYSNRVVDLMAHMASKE

CC(C)CN=C(S)NNC(=O)c1ccco1
EC50 [1]: 73.9 µM (not active)

CC(=O)n1cc(N(C(=O)CCl)c2ccc(Cl)cc2)c2ccccc21
IC50 [2]: > 64.5 µM (inactive) | EC50 (BJ [3]): 2.67 µM (active) | IC50 [4]: 682 nM (active) | EC50 (BJ [5]): 198 nM (active) | EC50 (BJ [6]): 2.5 µM (inconclusive) | IC50 (Melanocortin receptor 4): > 64.5 µM (inactive) | EC50 [7]: 1.37 µM (inconclusive) | AC50 [8]: 1.27 µM (active) | EC50 (Protein RecA): 0.346 µM (active) | IC50 [9]: 7.32 µM (active) | CC50 [10]: 1.08 µM (active)

Cc1ccc(C)c(NS(=O)(=O)c2cc(C(=O)Nc3ccccc3-c3ccccc3)ccc2Cl)c1
IC50 [11]: > 35 µM (not active) | IC50 [12]: 428 nM (active)

O=C(O)c1cccc2c1NC(c1cccc(Cl)c1Cl)C1CC=CC21 (centres undefined)
EC50 (Bcl-2-like protein 10): 2.67 µM (active)

O=[N+]([O-])c1cc(Cl)cc(/C=N/NC(=S)Nc2cc(S(=O)(=O)N3CCOCC3)ccc2Cl)c1O
IC50 [13]: 49.3 µM (not active) | IC50 (Bcl-2-like protein 1): > 109 µM (not active) | IC50 [14]: 2.19 µM (active) | IC50 [15]: 25.1 µM (active) | CC50 [16]: 25.7 µM (active)

CCCOc1ccc(/C=N/Nc2ccc(C(=O)O)cc2)c(OCCC)c1
EC50 [17]: 16.5 µM (not active) | EC50 [18]: 26.3 µM (not active) | EC50 (HEK293): 11.4 µM (not active)

O=C1C=Cc2ccccc2C1=O [1,2-NAPHTHOQUINONE]
EC50 [19]: > 100 µM (active) | AC50 [8]: 5.81 µM (active) | EC50 (Protein RecA): 9.13 µM (active)

Nc1ncnc2c1ncn2[C@@H]1O[C@H](COP(=O)(O)OP(=O)(O)OP(=O)(O)O)[C@@H](O)[C@H]1O [ADENOSINE TRIPHOSPHATE]
IC50 [20]: > 100 µM (not active) | IC50 [21]: 3.37 µM (active) | IC50 [22]: 17.3 µM (active)
